Results taken from the NIST ThermoML archive (doi:10.1016/j.jct.2016.09.007).

Test: xn = mol fraction of the nth substance listed
Details: 93.2 kPa, Liquid; for speed of sound: Frequency=3 MHz, Sing-around technique in a fixed-path interferometer; for mass density: Vibrating tube method

CCCC(=O)[O-].CCCC[NH3+] [n-butylammonium butanoate] + CO
Details | mass density, 293.15 K [kg/m3] | mass density, 298.15 K [kg/m3] | mass density, 303.15 K [kg/m3] | mass density, 308.15 K [kg/m3] | mass density, 313.15 K [kg/m3] | speed of sound, 293.15 K [m/s] | speed of sound, 298.15 K [m/s] | speed of sound, 303.15 K [m/s] | speed of sound, 308.15 K [m/s] | speed of sound, 313.15 K [m/s]
x1 = 0.0503 | 827.536 | 823.196 | 818.837 | 814.456 | 810.048 | 1187.9 | 1171.5 | 1155.3 | 1139.3 | 1123.3
x1 = 0.0999 | 850.303 | 846.198 | 842.076 | 837.934 | 833.767 | 1233.9 | 1217.6 | 1201.5 | 1185.5 | 1169.7
x1 = 0.1491 | 866.376 | 862.414 | 858.459 | 854.49 | 850.482 | 1268.2 | 1251.9 | 1235.9 | 1219.9 | 1204.1
x1 = 0.2011 | 878.773 | 874.958 | 871.116 | 867.265 | 863.431 | 1295.6 | 1279.4 | 1263.3 | 1247.4 | 1231.6
x1 = 0.2525 | 888.142 | 884.423 | 880.696 | 876.953 | 873.199 | 1316.7 | 1300.5 | 1284.4 | 1268.5 | 1252.7
x1 = 0.3057 | 895.564 | 891.923 | 888.274 | 884.609 | 880.93 | 1333.9 | 1317.8 | 1301.7 | 1285.8 | 1270
x1 = 0.3476 | 900.631 | 896.968 | 893.253 | 889.68 | 886.019 | 1345.6 | 1329.3 | 1313.2 | 1297.2 | 1281.4
x1 = 0.3966 | 905.316 | 901.759 | 898.192 | 894.632 | 891.1 | 1356.4 | 1340.1 | 1324 | 1308 | 1292.1
x1 = 0.4491 | 909.413 | 905.905 | 902.401 | 898.901 | 895.415 | 1366.1 | 1349.7 | 1333.5 | 1317.5 | 1301.7
x1 = 0.501 | 912.93 | 909.441 | 905.946 | 902.476 | 899.051 | 1374.4 | 1358 | 1341.8 | 1325.7 | 1310
x1 = 0.541 | 915.316 | 911.864 | 908.414 | 904.968 | 901.531 | 1380.2 | 1363.7 | 1347.4 | 1331.3 | 1315.4
x1 = 0.5913 | 917.715 | 914.276 | 910.846 | 907.442 | 904.079 | 1386 | 1369.4 | 1353.1 | 1336.9 | 1321
x1 = 0.6445 | 920.109 | 916.724 | 913.329 | 909.923 | 906.495 | 1391.7 | 1374.9 | 1358.5 | 1342.3 | 1326.3
x1 = 0.6895 | 921.905 | 918.523 | 915.128 | 911.737 | 908.371 | 1396.6 | 1379.8 | 1363.2 | 1346.9 | 1330.8
x1 = 0.7391 | 923.626 | 920.287 | 916.93 | 913.559 | 910.183 | 1401.3 | 1384.2 | 1367.4 | 1350.9 | 1334.8
x1 = 0.8007 | 925.47 | 922.166 | 918.855 | 915.534 | 912.194 | 1407.1 | 1389.5 | 1372.5 | 1355.8 | 1339.5
x1 = 0.8243 | 926.211 | 922.909 | 919.611 | 916.299 | 912.971 | 1409.6 | 1391.8 | 1374.6 | 1357.8 | 1341.4
x1 = 0.8973 | 927.898 | 924.584 | 921.292 | 918.007 | 914.707 | 1416.7 | 1398 | 1380.2 | 1362.9 | 1346.2
x1 = 0.932 | 928.804 | 925.491 | 922.195 | 918.913 | 915.625 | 1420.3 | 1401.2 | 1383 | 1365.5 | 1348.5
x1 = 1 | 928.794 | 925.509 | 922.217 | 918.88 | 915.567 | 1431.5 | 1410.3 | 1390.4 | 1371.5 | 1353.6
